Data from article PMC4428054, “A method for human teratogen detection by geometrically confined cell differentiation and migration” (Scientific Reports, 2015).
“Also recorded” adds a separate entry of the source. Read-outs that look alike come from different tables or passages of the source.

Tests used:
[1] = system: H9 human embryonic stem cells; experiment: Cytotoxicity assay (MTS) in H9 cells; assay type: cell-based; conditions: for IC25H9: 25% inhibitory concentration, H9 cells, 3 days, MTS viability; for Cytotoxicity of tested concentration to hPSCs: Thalidomide 800 μM, Penicillin G 200 μg/ml
Protocol: (§1) The dose-dependent effect of each compound on the mesoendoderm pattern formation was determined by dosing at four test conditions: zero, low, medium and high drug concentrations (Fig. 3i). The cytotoxicity of each compound was evaluated in order to find the appropriate range of testing concentrations. […] The results would represent specific cytotoxicity to embryonic and adult cells respectively. Based on the cytotoxicity data, three drug concentrations (designated as low, medium and high) were selected such that the lowest concentration tested was not toxic to both H9 cells and aHDFs, and the highest concentration should not be cytotoxic to aHDFs. The tested concentration was considered as not cytotoxic if it was less than the drug’s 25% inhibitory concentration (IC25) to the tested cell line[25].
(§2) The cytotoxicity test was done in 96-well tissue culture plates with 100 μl of medium with or without the drug. For each drug, 8 concentrations with 5-fold dilution were tested together with the vehicle controls. For H9 cells, the plates were coated with Matrigel^TM before cell seeding. 10,000 hES cells or 1,000 aHDF cells were plated into each well and cultured for 3 days in the test solution with half change of the medium with or without the drug every day. On day 3, cell viability was measured using CellTiter 96® AQueous One Solution Cell Proliferation Assay (MTS, G3580, Promega). […] IC25 values were acquired from either logistic regression using OriginPro 9 or direct reading from the cytotoxicity curve.

[2] = system: micropatterned human pluripotent stem cell (μP-hPSC) colonies; experiment: μP-hPSC model-based quantitative morphometric assay (disruption of annular mesoendoderm pattern); assay type: cell-based; conditions: for DC value compared with known Cmax: DC in μP-hPSC model vs Cmax in human plasma; for Does DC < IC25H9?: comparison of DC with IC25 to H9 cells; for Morphologic cluster readouts across four test groups (one-way ANOVA, post-hoc): control, low, medium, high concentrations, day 3; for DC (disruption concentration): lowest concentration which morphologically disrupts the mesoendoderm pattern vs non-treated control, 3-day mesoendoderm induction; for Teratogenicity classification in the μP-hPSC model: teratogenic if DC < IC25,H9
Protocol: as §1
A series of imaging processing and statistical analysis were developed to quantitatively measure the teratogenic effects of each drug (Fig. 3). After three days of culture in the mesoendoderm induction medium, immunofluorescence images of T were acquired (Fig. 3ii). We employed similar image quantification algorithms previously used for analyzing collagen deposition patterns in fibrotic tissues[26] to extract 19 morphological attributes that describe the annular mesoendoderm pattern (Fig. 3iii). […] A dose response plot was then generated for each morphologic cluster (Fig. 3iv). One-way analysis of variance (ANOVA) was performed to determine whether there were significant morphologic differences among test groups for each drug (Fig. 3v).
This concentration was defined as the disruption concentration (DC). If DC < IC25,H9, we can infer that the drug is teratogenic, where it affects embryonic development without being cytotoxic to embryonic cells.
The readouts of each morphologic cluster across the four test groups (i.e. control, low, medium, high) were plotted for each drug and one-way ANOVA was performed to determine whether there were significant differences across the test groups (Supplementary Fig. S7–S11).
The autoclaved PDMS stencil was first sealed onto a 60 mm petri dish (Nunc) using 200 μl of 70% ethanol. After drying in the cell culture hood, 450 μl Matrigel^TM in DMEM/F12 (11330032, GIBCO) was then added into each stencil and incubated for 5 hr at 37 °C before use. To obtain single cell suspension, the hPSC culture was treated with Accutase (SCR005, Merck Millipore) for about 10 min, and the cells were resuspended in mTeSR1 medium supplemented with 10 μM Y27632 (688000, Calbiochem, Merck Millipore). The cells were seeded onto the PDMS stencils at 100% confluence density of 4444 cells/mm^2 and allowed to attach for 1 hr. The stencil was then removed and the unpatterned substrate was passivated by backfilling with 0.5% Pluronic F-127 (P2443–1KG, Sigma-Aldrich) in DMEM/F12. After 10 min incubation, the μP-hPSC colonies were washed 3 times with DMEM/F12 and incubated at least for 3 hr in mTeSR^TM1 medium supplemented with 10 μM Y27632 before changed to mTeSR^TM1 medium alone. Differentiation was initiated 24 hr post seeding and lasted for 3 days before collecting the samples. For phase contrast live imaging, images were acquired every 20 min by BioStation CT (Nikon) using 10X objective. The imaging period started since the induction of differentiation and lasted for 3 days.
Morphological feature extraction from T fluorescence images was done in MATLAB Image Processing Toolbox (Mathworks). First, the outline of the μP-hPSC colony was identified by intensity difference compared with background and its centroid position was determined.

[3] = system: mouse embryonic stem cells (mESCs); conditions: disruption of beating cardiomyocyte formation from mESCs; cited from earlier work
[4] = set-up: method as in earlier work; conditions: ref 30-34 (Table 1), Supplementary refs 1-5, cited from earlier work
[5] = human plasma, therapeutic dosing, cited from earlier work
[6] = system: adult human dermal fibroblasts (aHDFs); experiment: Cytotoxicity assay (MTS) in adult human dermal fibroblasts; assay type: cell-based; conditions: Thalidomide 800 μM; Penicillin G 200 μg/ml
Protocol: as §1
as §2, with “10,000 hES cells or 1,000 aHDF cells were plated into each well and cultured for 3 days in the test solution with half change of the medium with or without the drug every day.” left out

μP-hPSC colonies = experiment: Quantitative RT-PCR of germ layer markers in drug-treated μP-hPSC colonies; assay type: cell-based, human; conditions: day 3; for Expression levels of MIXL1, GSC, NKX2.5, FOXA2, PAX6 and NESTIN / Expression level of mesoendoderm marker T compared to untreated control colonies / SOX17 expression level compared with untreated control colonies: Thalidomide 800 μM, Penicillin G 200 μg/ml; for Expression levels of MIXL1, GSC, NKX2.5, FOXA2, PAX6 and NESTIN: untreated control
Source text: Therefore, we reasoned that measuring changes in the mesoendoderm pattern, which is an assimilation of multiple cellular processes, as an assay readout for teratogenic potential, is sufficiently sensitive and may show better specificity as compared to the expression levels of a panel of molecular biomarkers for differentiation.
Total RNA was extracted from the samples on day 3 of the differentiation using the RNeasy® Plus Micro Kit (74034, QIAGEN) according to manufacturer’s protocol. Then cDNA was synthesized from the extracted RNA using High Capacity RNA-to-cDNA Kit (4387406, Applied Biosystems, Life Technologies). To analyze the gene expression levels of each sample, quantitative RT-PCR was performed using FastStart Universal SYBR Green Master (ROX) (04913914001, Roche) on the ABI 7500 Fast Real-Time PCR system (Applied Biosystems, Life Technologies) according to the manufacturer’s standard protocol. The relative quantitative expressions values of target genes were normalized to GAPDH and expressed relative to the levels of undifferentiated hPSCs using the ΔΔCT method. All primers used were commercially validated primers from GeneCopoeia^TM except for MIXL1, GSC, E-cadherin, N-cadherin, VIM, TWIST and SNAIL. The primer sequences/Catalogue numbers can be found in Supplementary Information (Supplementary Table S3).

DC value compared with known Cmax [2] | Does DC < IC25H9? [2] | DC (disruption concentration) [2] | SMILES | IC25H9 [1] | Morphologic cluster readouts across four test groups (one-way ANOVA, post-hoc) [2] | Teratogenicity classification in the μP-hPSC model [2] | In mEST (teratogenicity classification) [3] | In vivo human data (teratogenicity) [4] | Cytotoxicity of tested concentration to human adult fibroblasts [6] | Expression levels of MIXL1, GSC, NKX2.5, FOXA2, PAX6 and NESTIN (μP-hPSC colonies) | Expression level of mesoendoderm marker T compared to untreated control colonies (μP-hPSC colonies) | SOX17 expression level compared with untreated control colonies (μP-hPSC colonies) | Cytotoxicity of tested concentration to hPSCs [1] | further results
lower than or equal to | Yes | 0.1 mM | CCCC(CCC)C(=O)O [VPA, Valproic acid] | 130 µM | significant dose-dependent morphologic disruptions of the mesoendoderm pattern | – | – | Teratogenic | – | – | – | – | – | Cmax ([5]; ref Reed et al. (2006), read-out: Cmax): 574 µM
lower than or equal to | Yes | 0.00036 µg/mL | CC1=C(/C=C/C(C)=C/C=C/C(C)=C/C(=O)O)C(C)(C)CCC1 [RA, Retinoic acid] | >2 µg/mL | significant dose-dependent morphologic disruptions of the mesoendoderm pattern | Teratogenic | Teratogenic | Teratogenic[31] | – | – | – | – | – | Cmax ([5]; ref Muindi et al. (1992)): 347 ng/mL; In vivo human data (teratogenicity) ([4]; listed as Retinoic acid): Teratogenic

The next lines start with the compound.

SMILES | DC value compared with known Cmax [2] | Does DC < IC25H9? [2] | DC (disruption concentration) [2] | IC25H9 [1] | Morphologic cluster readouts across four test groups (one-way ANOVA, post-hoc) [2] | Teratogenicity classification in the μP-hPSC model [2] | In mEST (teratogenicity classification) [3] | In vivo human data (teratogenicity) [4] | Cytotoxicity of tested concentration to human adult fibroblasts [6] | Expression levels of MIXL1, GSC, NKX2.5, FOXA2, PAX6 and NESTIN (μP-hPSC colonies) | Expression level of mesoendoderm marker T compared to untreated control colonies (μP-hPSC colonies) | SOX17 expression level compared with untreated control colonies (μP-hPSC colonies) | Cytotoxicity of tested concentration to hPSCs [1] | further results
CC(C)(S)[C@@H](N)C(=O)O [D-penicillamine] | lower than or equal to | Yes | 200 µg/mL | 278 µg/mL | significant dose-dependent morphologic disruptions of the mesoendoderm pattern | Teratogenic | non-terotogenic; also recorded: Non-teratogenic | Teratogenic[32] | – | – | – | – | – | In vivo human data (teratogenicity) ([4]; listed as D-Penicillamine): Teratogenic
CC1(C)S[C@@H]2[C@H](NC(=O)Cc3ccccc3)C(=O)N2[C@H]1C(=O)O [Penicillin G] | much higher | much higher and No | – | 787 µg/mL | no significant differences among test groups in almost all morphologic clusters except CL6 | Non-teratogenic | – | – | non-cytotoxic | no significant differences | higher expression level | no significant difference | non-cytotoxic | Mesoendoderm pattern position (CL6) in high concentration test group ([2]; 1,000 μg/ml vs zero dose control, post-hoc p = 0.001): significant inward mesoenoderm pattern position toward the colony centre
O=C1CCC(N2C(=O)c3ccccc3C2=O)C(=O)N1 (centres unmarked) [Thalidomide] | – | Yes | 0.03 mM | >1000 µM | significant dose-dependent morphologic disruptions of the mesoendoderm pattern | Teratogenic | cannot be detected | Teratogenic[30] | non-cytotoxic | no significant differences | higher expression level | no significant difference | non-cytotoxic | Expression level of definitive endoderm marker SOX17 compared with Penicillin G-treated colonies (μP-hPSC colonies; Thalidomide 800 μM vs Penicillin G 200 μg/ml): significantly lower; Cmax ([5]; ref Teo et al. (2004), read-out: Cmax): 10.9 µM; Collective cell migration trajectory (live imaging and kymograph) ([2]; Thalidomide 800 μM, Penicillin G 200 μg/ml, 3-day live imaging, vs untreated colonies): migrated much more towards the colony center; Mesoendoderm pattern morphology (T+ cells) after 3 days ([2]; Thalidomide 800 μM, Penicillin G 200 μg/ml, vs untreated colonies): much wider mesoendoderm pattern that was displaced towards the colony center
